Reference: ChEMBL document CHEMBL1201862, “PubChem BioAssay data set” (2004)
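Cells were grown in 96-well plates and exposed to each compound for 48 hours at five concentrations; endpoints were interpolated linearly between bracketing concentrations, or set to the highest concentration if not reached. GI50 marks 50% less growth.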 The source made the active and inactive calls. Cut-off read from the data, not from the text of the source: active = GI50 up to about 1.1 µM and inactive = higher.

Key:
Experiment in all cases: inhibition of tumour cell growth, NCI panel, 48 h
NCI-H23 = test system: NCI-H23
HOP-62 = test system: HOP-62
EKVX = test system: EKVX
K562 = test system: K562
OVCAR-4 = test system: OVCAR-4
RXF 393 = test system: RXF 393
SK-MEL-28 = test system: SK-MEL-28
SN12C = test system: SN12C
NCI-H522 = test system: NCI-H522
CCRF-CEM = test system: CCRF-CEM
A549 = test system: A549
U-251 = test system: U-251
HT-29 = test system: HT-29
COLO 205 = test system: COLO 205
UACC-62 = test system: UACC-62
SF-295 = test system: SF-295
NCI-H460 = test system: NCI-H460
LOX IMVI = test system: LOX IMVI
SK-OV-3 = test system: SK-OV-3
SK-MEL-2 = test system: SK-MEL-2

Measured: GI50

Cc1nc(O)nc(O)c1/C=C/C(=O)O
inactive: NCI-H23 > 1000 µM | HOP-62 > 1000 µM | EKVX > 1000 µM | K562 > 1000 µM | OVCAR-4 > 1000 µM | RXF 393 > 1000 µM | SK-MEL-28 > 1000 µM | SN12C > 1000 µM | NCI-H522 > 1000 µM | CCRF-CEM > 1000 µM | A549 > 1000 µM | U-251 > 1000 µM | HT-29 > 1000 µM | COLO 205 > 1000 µM | UACC-62 > 1000 µM | SF-295 > 1000 µM | NCI-H460 > 1000 µM | LOX IMVI > 1000 µM | SK-OV-3 > 1000 µM | SK-MEL-2 > 1000 µM

Cc1cc(NC(=S)Nc2ccccc2)c(NC(=S)Nc2ccccc2)cc1C
inactive: NCI-H23 37.2 µM | HOP-62 15.5 µM | EKVX 39.3 µM | K562 9.44 µM | OVCAR-4 32.3 µM | RXF 393 > 46.8 µM | SK-MEL-28 38.8 µM | SN12C 40.4 µM | NCI-H522 7.78 µM | CCRF-CEM 13.5 µM | A549 23.3 µM | U-251 15.7 µM | HT-29 36.6 µM | COLO 205 26.1 µM | UACC-62 18.2 µM | SF-295 11.4 µM | NCI-H460 12.9 µM | LOX IMVI 39.4 µM | SK-OV-3 35 µM | SK-MEL-2 16.9 µM

O=C(CCN1CCOCC1)/C(=C/c1ccccc1)c1ccccc1
inactive: NCI-H23 4.15 µM | HOP-62 26.1 µM | EKVX 8.18 µM | K562 1.89 µM | OVCAR-4 10.3 µM | RXF 393 1.57 µM | SK-MEL-28 5.37 µM | SN12C 4.15 µM | NCI-H522 1.77 µM | CCRF-CEM 1.98 µM | A549 15.6 µM | U-251 3.99 µM | HT-29 4.49 µM | COLO 205 3.89 µM | UACC-62 2.49 µM | SF-295 12.3 µM | NCI-H460 8.95 µM | LOX IMVI 2.61 µM | SK-OV-3 19.3 µM | SK-MEL-2 8.17 µM
